{"source": "patent EP0779076A1", "about": "“PEPTIDE, A METHOD OF OBTAINING IT AND A PHARMACEUTICAL COMPOUND BASED ON IT” (priority 1994, dated 1996)", "key": {"rats": {"tested_on": "rats", "assay": "Tail flick analgesic test", "type": "in vivo", "conditions": "intranasally 0.005 mg/kg", "excerpt": "Opium-like activity was studied in a classical way by […] tests on isolated organs: - Test GPI (Guang T.A, Kosterlitz H.W, Agonist and antagonist action of morphine like drugs on the guinea pigs isolated ileum, Br.J. Pharmacol., 1966, V.27N3.P.514-527 - Test MVD; Hughs J., Kosterlitz H.W., Leslie F.M, Effect of morphine on adrenergic transmission in mouse is different. Assessment of agonist and antagonist potencies of narcotics, Br.J. Pharmacol., 1975, V. 53, N3-P. 371-381) As well as tests to determine opium-like activities by the […] hot plate test (Aukier S.I., New hot plate tests to qualify analgesic and narcotic antagonist activities, Eur.J. Pharmacol., 174 - V.27 Ni p.1-4) and \"Tail flick\" on rats (D'Amour F.E., Smith D.L, A method for determining loss, Exp.Ther.,1974, V.72 Ni-p.74-79).\nThe analgesic activities of those peptides were tested by the \"tail flick\" method on rats which received intranasally a dose of 0.005 mg/kg. A real analgesic effect of 242 units was characteristic to the peptide H-Arg-Tyr-D-Ala-Phe-Gly-OH. Table 2 outlines the findings with regard to the opium-like activity for this peptide group."}}, "note": "Non-standard residues stand in square brackets, D forms with d. Residues, ends and D or L forms follow the SMILES beside them."}
{"smiles": "C[C@@H](NC(=O)[C@H](Cc1ccc(O)cc1)NC(=O)[C@@H](N)CCCNC(=N)N)C(=O)N[C@@H](Cc1ccccc1)C(=O)NCC(=O)O", "note": "[H-Arg-Tyr-D-Ala-Phe-Gly-OH] (H-RY[dA]FG-OH)", "values": [{"measurement": "analgesic effect", "setting": "rats", "result": 242, "unit": "units"}, {"measurement": "solubility in alcohol", "setting": "alcohol", "result": "not well dissolvable in alcohol"}, {"measurement": "solubility in chloroform", "setting": "chloroform", "result": "nonsoluble in chloroform"}, {"measurement": "solubility in water", "setting": "water", "result": "dissolvable in water"}]}
